Measured values reported in BindingDB's records for doi:10.1021/jm00147a030 (1985).

Target: Angiotensin-converting enzyme (Cavia porcellus)
Assay: In vitro inhibitory activity against Angiotensin I converting enzyme from unpurified guinea pig serum

Row | SMILES | IC50
1 | CCOC(=O)C(CCc1ccccc1)OC(C)C(=O)N1C(C(=O)O)CC2CCCCC21 (stereo not given) | 24 nM
2 | CC(OC(CCc1ccccc1)C(=O)O)C(=O)N1Cc2ccccc2CC1C(=O)O (stereo not given) | 86 nM
3 | CCOC(=O)C(CCc1ccccc1)SC(C)C(=O)N1CCCC1C(=O)O (stereo not given) | 2900 nM
4 | CCOC(=O)C(CCc1ccccc1)OC(C)C(=O)N1CCCC1C(=O)O (stereo not given) | 220 nM
5 | CCOC(=O)C(CCc1ccccc1)OC(C)C(=O)N1Cc2ccccc2CC1C(=O)O (stereo not given) | 14 nM
6 | CC(SC(CCc1ccccc1)C(=O)O)C(=O)N1C2CCCCC2C[C@H]1C(=O)O (stereo not given in full) | 140 nM
7 | CCOC(=O)C(CCc1ccccc1)SC(C)C(=O)N1Cc2ccccc2C[C@H]1C(=O)O (stereo not given in full) | 460 nM
8 | CCOC(=O)C(CCc1ccccc1)[S+]([O-])C(C)C(=O)N1C2CCCCC2C[C@H]1C(=O)O (stereo not given in full) | 220 nM
9 | CC(SC(CCc1ccccc1)C(=O)O)C(=O)N1CCC[C@H]1C(=O)O (stereo not given in full) | 580 nM
10 | CCOC(=O)C(CCc1ccccc1)SC(C)C(=O)N1CSC[C@@H]1C(=O)O (stereo not given in full) | 4800 nM
